According to US10077243B2, “Compounds for treating disorders mediated by metabotropic glutamate receptor 5, and methods of use thereof” (Sunovion Pharmaceuticals Inc., priority 2009, dated 2018):

Each compound was assayed against T1, human mGluR5 (Homo sapiens, UniProt P41594) (assay: In vitro cell-based FLIPR calcium assay for positive modulation of the activation of mGluR5 by glutamate (PAM EC50)). Settings: HEK293/GLAST cells expressing recombinant human mGluR5; FLIPR calcium signal; glutamate added at its EC20; read-out: mGluR5 PAM EC50.
T1 construct: expressed in transfected cells; host or cells: HEK293 cells stably expressing rat GLAST (EAAT1), stably transfected with pcDNAzeo3.1 carrying synthetic human mGluR5 DNA; zeocin-selected single clones
Text: The DNA sequences encoding the structural regions for rat mGluR5 [Abe T, Sugihara H, Nawa H, Shigemoto R, Mizuno N, Nakanishi S (1992) “Molecular characterization of a novel metabotropic glutamate receptor mGluR5 coupled to inositol phosphate/Ca^2+ signal transduction” Journal of Biological Chemistry vol. 267, no. 19, pp. 13361-8] and human mGluR5 [Daggett L P, Sacaan A I, Akong M, Rao S P, Hess S D, Liaw C, Urrutia A, Jachec C, Ellis S B, Dreessen J, Knöpfel T, Landwehrmeyer G B, Testa C M, Young A B, Varney M, Johnson E C, Veliçelebi (1995) “Molecular and functional characterization of recombinant human metabotropic glutamate receptor subtype 5” Neuropharmacology vol. 34, no. […] 53, no. 3, pp. 355-369] was obtained from Dr. Michael Robinson of the Children's Hospital of Philadelphia under a Material Transfer Agreement. The pcDNAzeo3.1 vector DNA, carrying either rat mGluR5 or human mGluR5, was used to transfect a sample of the HEK293/GLAST cells, and single clones that express mGluR5 were isolated from the transfected cells using zeocin selection. Expression of mGluR5 was assessed by measurement of the transient fluorescence signal elicited from HEK293/GLAST/mGluR5 cells by glutamate following the loading of the cells with a calcium-sensitive dye using a FLIPR Tetra (Fluorometric Imaging Plate Reader) (Molecular Devices, Sunnyvale, Calif.) [O'Brien J A, Lemaire W, Chen T B, Chang R S, Jacobson M A, Ha S N, Lindsley C W, Schaffhauser H J, Sur C, Pettibone D J, Conn P J, Williams D L Jr. […] 64, no. 3, pp. 731-740; Assay Guidance Manual Version 5.0, 2008, Eli Lilly and Company and NIH Chemical Genomics Center; available online HEK293/GLAST/mGluR5 cells were grown in Dulbecco's Modified Eagle Medium (DMEM) supplemented with 10% dialyzed fetal bovine serum, 20 millimolar (mM) N-2-hydroxyethylpiperazine-N′-2-ethanesulfonic acid (HEPES), penicillin, streptomycin, 1% GlutaMax™ (Invitrogen) and 50 μg/ml zeocin. Cells were grown in the media to 70-80% confluency at 37° C. under 5% CO2, 95% humidity in poly-D-lysine coated coated flasks. Cells for assays were plated into 96-well sterile standard microtiter plates (pre-coated with poly-D-lysine) at a density of 50,000 cells per well in 0.2 milliliters of media. Plated cells were allowed to settle and adhere for 30 minutes at ambient conditions, and then were incubated overnight at 37° C. under 5% CO2, 95% humidity. Several such 96-well plates were typically prepared. On the day of the assays, the components of the FLIPR calcium 4 assay kit (Molecular Devices) were dissolved according to the instructions of the dye kit's manufacturer in assay buffer (Hank's balanced salt solution (HBSS) (Gibco) supplemented with 20 mM HEPES). After removal of the growth media from the first plate, cells were loaded with calcium dye by addition of calcium dye solution (50 microliters per well) and incubation at 25° C. for 45 to 60 minutes. The first plate was placed into the FLIPR Tetra, and a dilution series of glutamate solutions in assay buffer were added to wells on the plate, followed by acquisition of fluorescence data for several minutes. The fluorescence data (maximal signal as a 4-parameter sigmoidal function of log [glutamate]) were processed by non-linear regression methods using the software package GraphPad Prism 5.01 (GraphPad Software Inc.), to yield a glutamate concentration-response curve (CRC). […] These values were, respectively, the concentrations of glutamate that elicit 20%, 50%, and 80% of the maximal FLIPR signal (observed at saturating [glutamate]). The method for measuring the concentration response of a potentiator, or positive allosteric modulator (PAM), is described here as an example. For that purpose, subsequent assays were typically performed using assay buffer containing a glutamate concentration equal to that day's EC20. […] Addition to certain wells of the same buffer containing 0.3% DMSO, but without any test compound, provided a negative control.

T1 sequence (P41594 21-1212): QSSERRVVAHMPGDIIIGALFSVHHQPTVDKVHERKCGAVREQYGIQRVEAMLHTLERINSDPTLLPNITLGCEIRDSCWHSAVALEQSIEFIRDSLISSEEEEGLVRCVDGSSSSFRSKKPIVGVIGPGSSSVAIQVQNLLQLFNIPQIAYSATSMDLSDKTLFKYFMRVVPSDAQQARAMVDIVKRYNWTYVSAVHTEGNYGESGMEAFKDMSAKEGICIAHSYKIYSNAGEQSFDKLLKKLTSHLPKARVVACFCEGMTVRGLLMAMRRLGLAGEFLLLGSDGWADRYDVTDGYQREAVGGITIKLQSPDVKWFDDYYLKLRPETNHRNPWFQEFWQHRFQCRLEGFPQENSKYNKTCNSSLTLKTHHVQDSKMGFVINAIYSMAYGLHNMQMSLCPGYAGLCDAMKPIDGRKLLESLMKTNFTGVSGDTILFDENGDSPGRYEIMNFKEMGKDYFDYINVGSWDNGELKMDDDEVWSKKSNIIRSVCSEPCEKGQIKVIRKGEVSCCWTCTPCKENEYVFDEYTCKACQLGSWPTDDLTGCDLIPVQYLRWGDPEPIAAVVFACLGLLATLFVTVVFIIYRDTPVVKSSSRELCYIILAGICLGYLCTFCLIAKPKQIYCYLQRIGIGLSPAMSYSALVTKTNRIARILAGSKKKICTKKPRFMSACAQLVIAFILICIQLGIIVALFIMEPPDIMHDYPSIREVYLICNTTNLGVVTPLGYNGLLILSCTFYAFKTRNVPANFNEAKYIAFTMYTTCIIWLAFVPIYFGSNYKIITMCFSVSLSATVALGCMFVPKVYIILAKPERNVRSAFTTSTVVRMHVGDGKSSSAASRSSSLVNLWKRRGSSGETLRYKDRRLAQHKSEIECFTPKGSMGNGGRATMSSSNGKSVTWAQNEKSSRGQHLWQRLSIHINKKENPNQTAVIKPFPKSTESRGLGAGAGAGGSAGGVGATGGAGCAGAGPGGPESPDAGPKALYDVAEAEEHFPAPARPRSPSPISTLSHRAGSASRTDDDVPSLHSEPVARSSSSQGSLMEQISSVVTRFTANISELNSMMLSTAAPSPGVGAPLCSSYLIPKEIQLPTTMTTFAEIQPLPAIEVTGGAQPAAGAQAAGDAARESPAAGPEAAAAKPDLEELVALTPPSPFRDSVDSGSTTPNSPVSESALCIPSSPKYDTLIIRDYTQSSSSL

Compound	EC50 [nM]
O=c1c2ccc(C#Cc3ccccn3)cc2nc2n1CC1CC21 (stereo not drawn) [Example 4.27, 4-(pyridin-2-ylethynyl)-9,9a-dihydro-1H-cyclopropa[3,4]pyrrolo[2,1-b]quinazolin-7(1aH)-one]	30 to 100
Cn1cnc2cc(C#Cc3ccccc3)ccc2c1=O [Example 1.3, 3-methyl-7-(phenylethynyl)quinazolin-4(3H)-one]	100 to 300
O=c1c2c(nc3cc(C#Cc4ccc(F)cc4)ccn13)CCCCCC2 [Example 17.5, 3-((4-fluorophenyl)ethynyl)-8,9,10,11-tetrahydro-6H-cycloocta[d]pyrido[1,2-a]pyrimidin-12(7H)-one]	< 10
CC1Cc2nc3cc(C#Cc4ccccn4)ccc3c(=O)n2C1 (stereo not drawn) [Example 3.11, 2-methyl-6-(pyridin-2-ylethynyl)-2,3-dihydropyrrolo[2,1-b]quinazolin-9(1H)-one]	10 to 30
O=c1c2ccc(C#Cc3cccc(F)c3)cc2nc2n1CCC=C2 [Example 4.20, 3-((3-fluorophenyl)ethynyl)-8H-pyrido[2,1-b]quinazolin-11(9H)-one]	10 to 30
O=c1c2ccc(C#Cc3ccccn3)cc2nc2n1CCCCC2 [Example 6.5, 3-(pyridin-2-ylethynyl)-7,8,9,10-tetrahydroazepino[2,1-b]quinazolin-12(6H)-one]	< 10
CN1Cc2nc3cc(C#Cc4ccccn4)ccc3c(=O)n2CC1(C)C [Example 5.18, 2,3,3-trimethyl-9-(pyridin-2-ylethynyl)-3,4-dihydro-1H-pyrazino[2,1-b]quinazolin-6(2H)-one]	300 to 1000
O=c1c2ccc(C#Cc3cccnc3)cc2nc2n1CCC(O)CC2 (stereo not drawn) [Example 6.17, 8-hydroxy-3-(pyridin-3-ylethynyl)-7,8,9,10-tetrahydroazepino[2,1-b]quinazolin-12(6H)-one]	100 to 300
O=c1c2ccc(C#Cc3ccccn3)cc2nc2n1CC1CCCCN1C2 (stereo not drawn) [Example 5.20, 3-(pyridin-2-ylethynyl)-8,9,10,11,11a,12-hexahydropyrido[1′,2′:4,5]pyrazino[2,1-b]quinazolin-14(6H)-one]	300 to 1000
CN(C)CC1CCc2nc3cc(C#Cc4cccc(F)c4)ccc3c(=O)n2C1 (stereo not drawn) [Example 4.36, 8-((dimethylamino)methyl)-3-((3-fluorophenyl)ethynyl)-8,9-dihydro-6H-pyrido[2,1-b]quinazolin-11(7H)-one]	300 to 1000
Cc1cc(C#Cc2ccc3c(=O)n4c(nc3c2)CCC2(CC4)OCCO2)ccn1 [Example 7.47]	10 to 30
O=C1CCc2nc3cc(C#Cc4cccc(F)c4)ccc3c(=O)n2C1 [Example 4.22, 3-((3-fluorophenyl)ethynyl)-6H-pyrido[2,1-b]quinazoline-8,11(7H,9H)-dione]	30 to 100
CC1CCn2c(nc3cc(C#Cc4ccccn4)ccc3c2=O)C1 (stereo not drawn) [Example 4.11, 7-methyl-3-(pyridin-2-ylethynyl)-8,9-dihydro-6H-pyrido[2,1-b]quinazolin-11(7H)-one]	30 to 100
O=c1c2ccc(C#Cc3ccccn3)cc2nc2n1CC(CO)CC2 (stereo not drawn) [Example 4.32, 8-(hydroxymethyl)-3-(pyridin-2-ylethynyl)-8,9-dihydro-6H-pyrido[2,1-b]quinazolin-11(7H)-one]	100 to 300
CC1CCc2nc3cc(C#Cc4cccc(F)c4)ccc3c(=O)n2CC1 (stereo not drawn) [Example 6.7, 3-((3-fluorophenyl)ethynyl)-8-methyl-7,8,9,10-tetrahydroazepino[2,1-b]quinazolin-12(6H)-one]	< 10
O=c1c2c(nc3cc(C#Cc4ccncc4)ccn13)CCCCCC2 [Example 17.4, 3-(pyridin-4-ylethynyl)-8,9,10,11-tetrahydro-6H-cycloocta[d]pyrido[1,2-a]pyrimidin-12(7H)-one]	< 10
O=c1c2ccc(C#Cc3cccc(F)c3)cc2ncn1C1CCCC1 [Example 1.11, 3-cyclopentyl-7-((3-fluorophenyl)ethynyl)quinazolin-4(3H)-one]	10 to 30
CC1(F)CCc2nc3cc(C#Cc4ccccn4)ccc3c(=O)n2CC1 (stereo not drawn) [Example 6.48, 8-fluoro-8-methyl-3-(pyridin-2-ylethynyl)-7,8,9,10-tetrahydroazepino[2,1-b]quinazolin-12(6H)-one]	< 10
O=c1c2ccc(C#Cc3cccc(F)c3)cc2nc2n1CCN(CCO)C2 [Example 5.8, 9-((3-fluorophenyl)ethynyl)-2-(2-hydroxyethyl)-3,4-dihydro-1H-pyrazino[2,1-b]quinazolin-6(2H)-one]	30 to 100
CC1Cc2nc3cc(C#Cc4ccccn4)ccc3c(=O)n2C1 (single isomer, unassigned) [3.12/3.13 slower moving enantiomer (fraction 2), 2-methyl-6-(pyridin-2-ylethynyl)-2,3-dihydropyrrolo[2,1-b]quinazolin-9(1H)-one]	10 to 30
O=c1c2ccc(C#Cc3ccco3)cc2nc2n1CCC1(CC2)OCCO1 [Example 7.55]	30 to 100

Results, then the compound that gave them:

EC50 [nM]	Compound
100 to 300	CC(C)N1CCc2nc3cc(C#Cc4ccc(F)cc4)ccc3c(=O)n2CC1 [Example 8.3, 8-((4-fluorophenyl)ethynyl)-3-isopropyl-2,3,4,5-tetrahydro-[1,4]diazepino[7,1-b]quinazolin-11(1H)-one]
30 to 100	Cc1cnc(NC(=O)c2ccn3c(=O)c4c(nc3c2)CCCCC4)s1 [Example 28.3, N-(5-methylthiazol-2-yl)-11-oxo-6,7,8,9,10,11-hexahydrocyclohepta[d]pyrido[1,2-a]pyrimidine-3-carboxamide]
10 to 30	CC1(C)CCc2nc3cc(/C=C/c4cccc(C#N)n4)ccc3c(=O)n2C1 [Example 20.13, (E)-6-(2-(8,8-dimethyl-11-oxo-7,8,9,11-tetrahydro-6H-pyrido[2,1-b]quinazolin-3-yl)vinyl)picolinonitrile]
30 to 100	O=c1c2ccc(C#Cc3ccccn3)cc2nc2n1CC1CCCN1CC2 (stereo not drawn) [Example 9.4, 9-(pyridin-2-ylethynyl)-2,3,5,6,14,14a-hexahydropyrrolo[2′,1′:3,4][1,4]diazepino[7,1-b]quinazolin-12(1H)-one]
300 to 1000	O=c1c2ncc(C#Cc3ccccn3)cc2nc2n1CC1CCCN1C2 (stereo not drawn) [Example 11.6, 3-(pyridin-2-ylethynyl)-9,10,10a,11-tetrahydro-6H-pyrido[3,2-d]pyrrolo[1′,2′:4,5]pyrazino[1,2-a]pyrimidin-13(8H)-one]
100 to 300	CNC(=O)CN1CCc2nc3cc(C#Cc4cccc(F)c4)ccc3c(=O)n2CC1 [Example 8.15, 2-(8-((3-fluorophenyl)ethynyl)-11-oxo-1,2,4,5-tetrahydro-[1,4]diazepino[7,1-b]quinazolin-3(11H)-yl)-N-methylacetamide]
30 to 100	CCOCCc1cnc2cc(C#Cc3cccc(F)c3)ccn2c1=O [Example 13.13, 3-(2-ethoxyethyl)-8-((3-fluorophenyl)ethynyl)-4H-pyrido[1,2-a]pyrimidin-4-one]
300 to 1000	O=c1c2ccc(C#Cc3ccccn3)nc2nc2n1CCCCC2 [Example 12.5, 2-(pyridin-2-ylethynyl)-8,9,10,11-tetrahydropyrido[2′,3′:4,5]pyrimido[1,2-a]azepin-5(7H)-one]
100 to 300	O=c1c2ccc(C#Cc3cccc(F)c3)cc2nc2n1CCN(CC1CCCO1)CC2 (stereo not drawn) [Example 8.16, 8-((3-fluorophenyl)ethynyl)-3-((tetrahydrofuran-2-yl)methyl)-2,3,4,5-tetrahydro-[1,4]diazepino[7,1-b]quinazolin-11(1H)-one]
